Consider 5 molecules from publication PMC5443783, “Prostaglandin E2 glyceryl ester is an endogenous agonist of the nucleotide receptor P2Y6” (Scientific Reports, 2017).

Numbered stars: 1 amine (or outer) side, 2 acyl side, 3 side chain; on linkers, the order of the positions; unused ones are H or OH. Bridge positions count the residues as written; N and C are the ends. Square brackets hold non-standard residues; d marks the D form. Peptide text beside a SMILES is read from it. * marks the point of attachment. Leu(3R-OH,Nα-propionyl) = CCC(=O)N[C@H](C(=O)*)[C@H](O)C(C)C; X1 = CC(C)[C@@H](O[*:3])[C@H](N[*:1])C(=O)[*:2]; NMeT = CN[C@H](C(=O)O)[C@@H](C)O; dPhLac = O=C(O)[C@H](O)Cc1ccccc1; NMeA = CN[C@@H](C)C(=O)O; NMeDha = C=C(NC)C(=O)O

Assay [1] concerns the target T1, P2Y6 (Homo sapiens, UniProt Q15077). The assay is described as follows: IP1 accumulation assay in HEK293 cells transfected with wildtype P2RY6. Further details: expressed in transfected cells; host or cells: HEK293. As to conditions: IP1 accumulation, P2RY6-transfected HEK293, Fig. 3d. The class given is cell-based. The method, then:
To measure intracellular IP3 the HitHunter® Inositol (1,4,5) Triphosphate Assay (DiscoveRx, USA) was used according to manufacturer′s protocol. HEK293 cells stably transfected with hP2RY6 were seeded in a 384-well Black microtiter plate (15,000 cells/well) (Greiner Bio One, Germany) and incubated with indicated concentrations of UDP and PGE2-G for 20 seconds. Reaction was stopped by adding 5 µl 0.2 N perchloric acid and measurement of IP3 was performed with the Fusion AlphaScreen multilabel reader (PerkinElmer Life Sciences) according to manufacturer′s protocol. To measure IP1, HEK293 cells expressing wildtype and mutant P2Y6 were seeded into 384-well plates (5,000 cells/well) 24 h prior assay. After aspiration of the medium, cells were incubated with indicated concentrations of agonists/antagonist for 1 h. IP1 measurements using the IP-one HTFR® assay kit (Cisbio assays, USA) were performed according to manufacturer′s protocol. The assays were performed with a final concentration of 1% DMSO.

Another assay deals with RAW264.7 cells. As to conditions: RAW264.7 cells; cited from earlier work.
In assay [2] the target is T1, P2Y6. Put plainly: ERK1/2 phosphorylation (AlphaScreen SureFire) in P2RY6-transfected HEK293 cells. In kind it is cell-based. Details: expressed in transfected cells; host or cells: HEK293. As to conditions: HEK293 cells stably transfected with P2RY6, Fig. 3e. The method, then:
Cells were transferred to serum-free medium 2 h prior to assay. Ligands and controls (10 µl of 10× concentrates) were added to 90 µl medium and incubated for 5 min at 37 °C. The final concentration of DMSO was 0.2%. The reaction was stopped by aspiration of the medium and addition of 50 µl lysis buffer (PerkinElmer Life Sciences). To measure ERK1/2 phosphorylation, the AlphaScreen® SureFire ERK 1/2 assay kit (PerkinElmer Life Sciences) was used with the high sensitivity protocol. Phosphorylated ERK1/2 was measured in 384-well white OptiPlate microplates (PerkinElmer Life Sciences) with the Fusion AlphaScreen multilabel reader (PerkinElmer Life Sciences).
In general terms: Bead proximity is the source of the signal in Alpha formats.

T1 sequence (Q15077 whole entry, the tested form may be a part): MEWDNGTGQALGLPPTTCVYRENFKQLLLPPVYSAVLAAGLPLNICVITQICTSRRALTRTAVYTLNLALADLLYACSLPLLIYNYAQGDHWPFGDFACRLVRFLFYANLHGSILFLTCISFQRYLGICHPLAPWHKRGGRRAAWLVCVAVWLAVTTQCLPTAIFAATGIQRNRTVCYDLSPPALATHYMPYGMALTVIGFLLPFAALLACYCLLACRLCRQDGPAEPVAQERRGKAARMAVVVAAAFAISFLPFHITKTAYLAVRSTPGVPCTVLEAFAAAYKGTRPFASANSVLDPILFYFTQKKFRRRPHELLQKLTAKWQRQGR

`C=C1C(=O)N[C@@H](C)C(=O)N(C)[C@@H](C)C(=O)N[C@@H]([C@H](OC(=O)[C@@H](NC(=O)CC)[C@H](O)C(C)C)C(C)C)C(=O)N(C)[C@@H]([C@@H](C)OC)C(=O)O[C@H](C(C)C)[C@H](NC(C)=O)C(=O)O[C@H](Cc2ccccc2)C(=O)N1C` [UBO] (Ac-[X1][dPhLac][NMeDha]A[NMeA][X1](Leu(3R-OH,Nα-propionyl))[NMeT](Me); ester 1-C): the “block of IP formation after stimulation with UDP and PGE2-G” value on P2Y6 [1] is recorded as “significantly block”.
As for `CCCCC[C@H](O)/C=C/[C@@H]1[C@@H](C/C=C\CCCC(=O)OC(CO)CO)[C@@H](O)C[C@H]1O` [PGF2α-G], the “effect in Ca2+ measurements” value in the assay with RAW264.7 cells was “no effect”. Besides, on P2Y6 [2], the ERK1/2 phosphorylation response result is recorded as “no response”.
For the molecule `CCCCC[C@H](O)/C=C/[C@H]1[C@H](O)CC(=O)[C@@H]1C/C=C\CCCC(=O)O` [PGE2], in the assay with RAW264.7 cells, the “effect in Ca2+ measurements” value is recorded as “no effect”. Besides, the ERK1/2 phosphorylation response entry at P2Y6 [2] is “no response”.
With `CCCCC[C@H](O)/C=C/[C@@H]1[C@@H](C/C=C\CCCC(=O)O)[C@@H](O)C[C@H]1O` [PGF2α], the “effect in Ca2+ measurements” value in the assay with RAW264.7 cells is listed as “led to Ca^2+ release”. Also, the ERK1/2 phosphorylation response entry on P2Y6 [2] is recorded as “no effect”.
Regarding `CCCCC[C@H](O)/C=C/[C@H]1C(=O)C[C@H](O)[C@@H]1C/C=C\CCCC(=O)OC(CO)CO` [PGD2-G], the “effect in Ca2+ measurements” value in the assay with RAW264.7 cells is “no effect”.
